The target of one series is T1, ERα (Homo sapiens, UniProt P03372).
T1 construct: purchased Life Technologies
T1 sequence (P03372 1-595): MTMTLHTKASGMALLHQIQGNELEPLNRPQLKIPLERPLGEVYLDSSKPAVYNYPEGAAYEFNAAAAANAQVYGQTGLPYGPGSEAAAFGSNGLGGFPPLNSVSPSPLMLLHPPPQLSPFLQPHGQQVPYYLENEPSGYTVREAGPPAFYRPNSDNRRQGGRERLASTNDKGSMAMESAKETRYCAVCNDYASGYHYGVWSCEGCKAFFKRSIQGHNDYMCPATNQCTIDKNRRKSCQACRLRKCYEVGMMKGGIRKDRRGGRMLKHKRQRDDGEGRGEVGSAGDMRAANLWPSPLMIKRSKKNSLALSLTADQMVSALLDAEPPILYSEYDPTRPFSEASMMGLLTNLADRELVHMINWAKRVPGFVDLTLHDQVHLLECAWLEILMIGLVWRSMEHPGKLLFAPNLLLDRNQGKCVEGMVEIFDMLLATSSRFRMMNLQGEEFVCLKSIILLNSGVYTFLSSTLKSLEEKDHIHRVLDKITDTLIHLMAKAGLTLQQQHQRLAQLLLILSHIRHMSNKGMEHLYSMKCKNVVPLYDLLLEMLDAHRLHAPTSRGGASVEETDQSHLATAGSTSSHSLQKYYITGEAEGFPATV
Nature of the series: PolarScreen ER Alpha Competitor Assay (fluorescence polarization). It is filed as binding. The note with it: for inhibition at 10 µM / ER inhibition %: 10 μM. The protocol:
The pIC50 values for the derivatives (Table 1, Supplementary Table S1) were measured with green PolarScreen™ ER Alpha Competitor Assay (Life Technologies, CA, The United States of America) kit, following the manufacturer protocol as previously described (Niinivehmas et al., [2016]). The final concentration of the compounds ranged from 0.0007 to 10 000 nM in the dilution series which were performed as duplicates. The molecules were combined with 25 nM ERα and 4.5 nM fluormone in the assay buffer and placed on black low volume 384-well assay plate with NBS surface (Corning, NY, The United States of America). After mixing the assay plate, it was incubated for 2 h in RT. The fluorescence polarization was measured using excitation wave length 485 and emission wave length 535 with bandwidths of 25/20 nm on a 2104 EnVision® Multilabel Plate Reader which had EnVision Workstation version 1.7 (PerkinElmer, MA, The United States of America).

For a further series, the target named is T2, human CYP1A2 (Homo sapiens, UniProt P05177).
T2 construct: purchased Corning Inc
T2 sequence (P05177 1-516): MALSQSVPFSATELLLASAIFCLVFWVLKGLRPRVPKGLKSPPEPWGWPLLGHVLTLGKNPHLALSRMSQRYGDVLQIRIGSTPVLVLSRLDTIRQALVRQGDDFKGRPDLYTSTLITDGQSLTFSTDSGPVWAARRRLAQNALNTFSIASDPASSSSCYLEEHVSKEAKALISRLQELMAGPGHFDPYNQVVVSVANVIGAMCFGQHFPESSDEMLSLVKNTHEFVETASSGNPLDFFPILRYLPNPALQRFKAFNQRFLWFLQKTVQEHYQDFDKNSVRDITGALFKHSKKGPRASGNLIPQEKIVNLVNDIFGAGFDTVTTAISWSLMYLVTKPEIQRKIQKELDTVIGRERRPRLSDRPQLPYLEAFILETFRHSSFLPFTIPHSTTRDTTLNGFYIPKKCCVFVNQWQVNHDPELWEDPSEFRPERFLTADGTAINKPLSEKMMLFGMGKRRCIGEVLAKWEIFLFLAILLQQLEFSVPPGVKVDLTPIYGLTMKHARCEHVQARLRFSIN
As to the kind of experiment: CYP1A2 inhibition, 7-ethoxyresorufin fluorescence assay. It counts as biochemical. The protocol:
Inhibition of CYP1A2 activity was determined with commercial heterologously expressed human CYP1A2 enzyme (Corning Inc., Corning, NY, USA) as described earlier (Korhonen et al., [2005]). The metabolic activity was not in the scope of this particular study. The assay was adapted to the 96-well plate format. In each well, a 150 μL incubation volume contained 100 mM Tris-HCl buffer (pH 7.4), 4.2 mM MgCl2,1 μM 7-ethoxyresorufin, 0.5 pmol of cDNA expressed CYP1A2, […] inhibitor, and a NADPH-generating system. All inhibitors were dissolved in ethanol, and the final concentration of ethanol was 2% in all incubations. The reaction was initiated by adding the NADPH-regenerating system after a 10 min preincubation at 37°C, and after a 20 min incubation, the reaction was terminated by the addition of 110 μL of 80% acetonitrile/20% 0.5 M Tris base. The formed fluorescence was measured with a Victor2 plate counter (Perkin-Elmer Life Sciences Wallac, Turku, Finland) at 570 nm excitation and 616 nm emission.

We go through 25 molecules from paper PMC5840146, “Structure-Activity Relationship Analysis of 3-Phenylcoumarin-Based Monoamine Oxidase B Inhibitors” (Frontiers in Chemistry, 2018).

The inhibition is the share of the control response that was lost under treatment. Higher therefore signals a response far below the control. One may read the IC50 as the concentration that inhibits the measured activity by half. High values mean weaker potency, low ones greater potency.

In turn, `COc1ccc2cc(-c3cc(F)c(F)cc3F)c(=O)oc2c1` [derivative 16, 7-methoxy-3-(2,4,5-trifluorophenyl)-2H-chromen-2-one] showed an inhibition at 10 µM on ERα of 8.8%. The molecule further returned an IC50 against human CYP1A2 of 4.5 µM.

In turn, `COc1ccc2oc(=O)c(-c3ccc(F)cc3)cc2c1` [derivative 21, 3-(4-fluorophenyl)-6-methoxy-2H-chromen-2-one] returned an inhibition at 10 µM at ERα of 0%. For the same molecule, on human CYP1A2, the half-maximal inhibitory concentration (IC50) stood at 3 µM.

Molecule `COc1ccc2oc(=O)c(-c3ccc(N(C)C)cc3)cc2c1` [derivative 18, 3-(4-(dimethylamino)phenyl)-6-methoxy-2H-chromen-2-one] yielded an inhibition at 10 µM on ERα of 0%. In addition, the IC50 at human CYP1A2 stood at 17 µM.

At ERα, `Cc1ccc2oc(=O)c(-c3ccc(C(F)(F)F)cc3)cc2c1` [derivative 5, 6-methyl-3-(4-(trifluoromethyl)phenyl)-2H-chromen-2-one] gave an inhibition at 10 µM of 1.08%. Also, the IC50 at human CYP1A2 was 171 µM.

At ERα, `O=c1oc2ccc(O)cc2cc1-c1ccc(F)cc1` [derivative 24, 3-(4-fluorophenyl)-6-hydroxy-2H-chromen-2-one] came in with an inhibition at 10 µM of 0%. Moreover, the concentration for half-maximal inhibition (IC50) at human CYP1A2 was found to be 3 µM.

Turning to `O=c1oc2ccccc2cc1-c1cccc(O)c1` [derivative 31], the ER inhibition % at ERα is 0.00%. On human CYP1A2, this molecule returned an IC50 of 7 µM.

As to `COc1ccc(-c2cc3ccccc3oc2=O)cc1` [derivative 36], on ERα, the ER inhibition % is 0.00%. Moreover, 26 µM corresponded to half-maximal inhibition against human CYP1A2 (IC50).

Molecule `COc1ccc2oc(=O)c(-c3cc(F)c(F)cc3F)cc2c1` [derivative 15, 6-methoxy-3-(2,4,5-trifluorophenyl)-2H-chromen-2-one] displayed an inhibition at 10 µM on ERα of 0%. For the same molecule, the half-inhibitory concentration (IC50) against human CYP1A2 was found to be 3 µM.

Turning to `O=c1oc2ccc(O)cc2cc1-c1cccc(O)c1` [derivative 38], on ERα, the ER inhibition % turned out to be 18.53%. Besides, the IC50 against human CYP1A2 stood at 24 µM.

`COc1ccc2oc(=O)c(-c3ccc(Oc4ccc(F)cc4)cc3)cc2c1` [derivative 46]: the ER inhibition % on ERα is on record as 0.00%. The same molecule yielded an IC50 on human CYP1A2 of 240 µM.

Turning to `COc1cccc(-c2cc3ccc(OC)cc3oc2=O)c1` [derivative 25], the ER inhibition % at ERα was 0.00%. The molecule also came in with an IC50 on human CYP1A2 of 35 µM.

As for `COc1ccc2oc(=O)c(-c3ccc(O)c(F)c3)cc2c1` [derivative 22, 3-(3-fluoro-4-hydroxyphenyl)-6-methoxy-2H-chromen-2-one], at ERα, the “ER activity (in words)” value is recorded as “prominent” and 10 µM produced 55.4% inhibition. At human CYP1A2, this molecule registered a 50% inhibitory concentration (IC50) of 1.5 µM.

In the case of `Cc1ccc(-c2cc3ccc(O)cc3oc2=O)cc1` [derivative 27], on ERα, the “ER activity (in words)” value is on record as “prominent” and the ER inhibition % was determined as 70.96%. At human CYP1A2, this molecule yielded an IC50 of 180 µM.

Take `Cc1ccc2oc(=O)c(-c3ccc(F)cc3)cc2c1` [derivative 23, 3-(4-fluorophenyl)-6-methyl-2H-chromen-2-one]: 10 µM produced 0% inhibition on ERα. On human CYP1A2, this molecule returned a half-maximal inhibitory concentration (IC50) of 3 µM.

As to `COc1cccc(-c2cc3cc(OC)ccc3oc2=O)c1` [derivative 8, 6-methoxy-3-(3-methoxyphenyl)-2H-chromen-2-one], at 10 µM the inhibition on ERα was 0%. This molecule gave an IC50 on human CYP1A2 of 2.3 µM.

As for `O=c1oc2cc(O)ccc2cc1-c1ccc(O)cc1` [derivative 30], on ERα, the “ER activity (in words)” value is “prominent” and the ER inhibition % turned out to be 58.53%. The molecule also came in with an IC50 against human CYP1A2 of 22 µM.

As for `O=c1oc2cc(O)ccc2cc1-c1ccc(F)cc1` [derivative 39], at ERα, the “ER activity (in words)” value is “prominent” and the ER inhibition % is 100.63%. Also, the half-inhibitory concentration (IC50) against human CYP1A2 is 240 µM.

On to `COc1ccc(-c2cc3cccc(O)c3oc2=O)cc1` [derivative 33], for which the ER inhibition % on ERα came out at 0.00%. The molecule further returned an IC50 at human CYP1A2 of 86 µM.

Take `CC(=O)Oc1ccc2cc(-c3ccc(F)cc3)c(=O)oc2c1` [derivative 28]: on ERα, the “ER activity (in words)” value was “prominent” and the ER inhibition % is recorded as 57.12%. This molecule also registered an IC50 against human CYP1A2 of 114 µM.

Turning to `COc1ccc2cc(-c3ccc(O)c(F)c3)c(=O)oc2c1` [derivative 20, 3-(3-fluoro-4-hydroxyphenyl)-7-methoxy-2H-chromen-2-one], at ERα, the “ER activity (in words)” value was “prominent” and the inhibition at 10 µM was determined as 86.1%. On human CYP1A2, this molecule showed a half-inhibitory concentration (IC50) of 30 µM.

In the case of `O=c1oc2ccccc2cc1-c1ccc(O)cc1` [derivative 29], on ERα, the “ER activity (in words)” value is “prominent” and the ER inhibition % was determined as 74.22%. The molecule also displayed an IC50 on human CYP1A2 of 26 µM.

For the molecule `O=c1oc2cc(O)ccc2cc1-c1ccccc1` [derivative 41], at ERα, the “ER activity (in words)” value is on record as “prominent” and the ER inhibition % worked out at 101.40%. Also, at human CYP1A2, the IC50 stood at 8 µM.

Take `COc1ccc(-c2cc3ccc(O)cc3oc2=O)cc1` [derivative 12, 7-hydroxy-3-(4-methoxyphenyl)-2H-chromen-2-one]: at ERα, the “ER activity (in words)” value was “prominent” and testing at 10 µM gave an inhibition of 91.3%. Moreover, at human CYP1A2, 170 µM corresponded to half-maximal inhibition (IC50).

As for `O=c1oc2ccc(O)cc2cc1-c1ccc(O)cc1` [derivative 48], at ERα, the “ER activity (in words)” value is on record as “prominent” and the ER inhibition % was 98.41%. At human CYP1A2, this molecule showed an IC50 of 33 µM.

Consider `COc1cccc(-c2cc3ccccc3oc2=O)c1` [derivative 11, 3-(3-methoxyphenyl)-2H-chromen-2-one], for which, at ERα, the inhibition at 10 µM is 0.29%. At human CYP1A2, this molecule had a 50% inhibitory concentration (IC50) of 1.6 µM.
